Data on 23 molecules can be found in patent US10640520B2, “Boronic acid derivatives” (MERCK PATENT GMBH, priority 2014, dated 2020).

pIC50: −log10 of the molar value.

The target of one test is LMP7 (Homo sapiens, UniProt P20618+P28062). Put plainly: Determination of LMP7 activity (fluorescence intensity assay, Suc-LLVY-AMC). The class given is biochemical. The conditions noted are these: purified human immunoproteasome. The procedure: Determination of LMP7 Activity:
Measurement of LMP7 inhibition is performed in 384 well format based on fluorescence intensity assay.
(§1) Purified human immunoproteasome (0.25 nM) and serial diluted compounds in DMSO (range of concentrations from 30 μM to 15 pM) or controls are incubated for 20 minutes or 120 minutes (long incubation) at 25° C. in assay buffer containing 50 mM Tris pH 7.4, 0.03% SDS, 1 mM EDTA and 1% DMSO. The reaction is initiated by the addition of the fluorogenic peptide substrate, Suc-LLVY-AMC (Bachem 1-1395), at a concentration of 40 μM. After 60 minutes of incubation at 37° C., fluorescence intensity is measured at λex=350 nm and λem=450 nm with a fluorescence reader (Perkin Elmer Envision reader or equivalent).
(§2) Unless indicated otherwise the results are obtained after incubation for 20 minutes.

The next test concerns the target Beta5 (Homo sapiens, UniProt P20618+P28074). Briefly: Determination of Beta5 activity (fluorescence intensity assay, Suc-LLVY-AMC). In kind it is biochemical. As to conditions: for pIC50: purified human constitutive proteasome. The procedure: Determination of Beta5 Activity:
Measurement of Beta5 inhibition is performed in 384 well format based on fluorescence intensity assay.
as §1, with “constitutive proteasome (1.25” for “immunoproteasome (0.25”, “[…])” for “pM)”
as §2

Regarding `CCc1cccc(C[C@H](NC(=O)CCCN2CCOC2=O)B(O)O)c1` [Compound 1, [(1R)-2-(3-ethylphenyl)-1-[4-(2-oxooxazolidin-3-yl)butanoylamino]-ethyl]boronic acid], at LMP7 (incubation for 20 minutes), the pIC50 (as a rule, the IC50 on a negative log10 scale, so that one unit is a factor of ten) was 6.30 to 7.30. At Beta5 (incubation for 20 minutes), the “Selectivity LMP7 vs Beta5” value is given as “++ (10 ≤ Selectivity < 30)” and the pIC50 is less than 5.30.
Taken in the same sequence, the figures for `CCN1CCN(CCC(=O)N[C@@H](Cc2coc3ccccc23)B(O)O)C(=O)C1=O` [Compound 34, [(1R)-2-(benzofuran-3-yl)-1-[3-(4-ethyl-2,3-dioxo-piperazin-1-yl)propanoylamino]ethyl]boronic acid] were greater than 7.30, “++ (10 ≤ Selectivity < 30)” and 6.30 to 7.30.
Taken in the same sequence, the figures for `Cc1ccc(C[C@H](NC(=O)CCN2CCCCS2(=O)=O)B(O)O)c(C)c1` [Compound 32, [(1R)-2-(2,4-dimethylphenyl)-1-[3-(1,1-dioxothiazinan-2-yl)propanoylamino]ethyl]boronic acid] were greater than 7.30, “+++ (30 ≤ Selectivity < 50)” and 5.30 to 6.30.
Molecule `Cc1ccc(C[C@H](NC(=O)CCN2CCCCC2=O)B(O)O)cc1` [Compound 9, [(1R)-1-[3-(2-oxo-1-piperidyl)propanoylamino]-2-(p-tolyl)ethyl]boronic acid] showed a negative-log IC50 (pIC50) on LMP7 (incubation for 20 minutes) greater than 7.30. In addition, on Beta5 (incubation for 20 minutes), the “Selectivity LMP7 vs Beta5” value was “++ (10 ≤ Selectivity < 30)” and the pIC50 is 5.30 to 6.30.
At LMP7 (incubation for 20 minutes), `Cc1ccc(C[C@H](NC(=O)C2CCC(=O)N2c2ccccc2)B(O)O)c(C)c1` (stereo partly drawn) [Compound 36, [(1R)-2-(2,4-dimethylphenyl)-1-[(5-oxo-1-phenyl-pyrrolidine-2-carbonyl)amino]-ethyl]boronic acid] had a pIC50 of 6.30 to 7.30. In addition, at Beta5 (incubation for 20 minutes), the “Selectivity LMP7 vs Beta5” value is listed as “+++ (30 ≤ Selectivity < 50)” and the pIC50 was 5.30 to 6.30.
The corresponding values for `O=C(CCN1CCN(c2ccccc2)C1=O)N[C@@H](Cc1ccc(F)cc1)B(O)O` [Compound 14, [(1R)-2-(4-fluorophenyl)-1-[3-(2-oxo-3-phenyl-imidazolidin-1-yl)propanoylamino]ethyl]boronic acid] are greater than 7.30, “++ (10 ≤ Selectivity < 30)” and 6.30 to 7.30.
In the case of `Cc1cccc2c(C[C@H](NC(=O)CCN3C(=O)CCC3(C)C)B(O)O)coc12` [Compound 38, [(1R)-1-[3-(2,2-dimethyl-5-oxo-pyrrolidin-1-yl)propanoylamino]-2-(7-methylbenzofuran-3-yl)ethyl]boronic acid], the results for the pIC50 against LMP7 (long incubation (120 min)) and against Beta5 (long incubation (120 min)) were greater than 7.30 and 5.30 to 6.30, respectively. On Beta5 (long incubation (120 min)), the “Selectivity LMP7 vs Beta5” value is listed as “+++++ (Selectivity ≥ 70)”.
With `O=C(CCN1CCCC1=O)N[C@@H](Cc1ccc2c(c1)OCCO2)B(O)O` [Compound 8, [(1R)-2-(2,3-dihydro-1,4-benzodioxin-6-yl)-1-[3-(2-oxopyrrolidin-1-yl)propanoylamino]ethyl]boronic acid], the pIC50 against LMP7 (incubation for 20 minutes) is greater than 7.30. Further, on Beta5 (incubation for 20 minutes), the “Selectivity LMP7 vs Beta5” value is reported as “+++ (30 ≤ Selectivity < 50)” and the pIC50 is 5.30 to 6.30.
At LMP7 (incubation for 20 minutes), `Cc1ccc(C[C@H](NC(=O)CN2CCCC2=O)B(O)O)cc1` [Compound 21, [(1R)-1-[[2-(2-oxopyrrolidin-1-yl)acetyl]amino]-2-(p-tolyl)ethyl]boronic acid] had a pIC50 of 6.30 to 7.30. On Beta5 (incubation for 20 minutes), the “Selectivity LMP7 vs Beta5” value is recorded as “++ (10 ≤ Selectivity < 30)” and the pIC50 is 5.30 to 6.30.
Taken in the same sequence, the figures for `O=C(CCN1CCCOC1=O)N[C@@H](Cc1coc2ccccc12)B(O)O` [Compound 30, [(1R)-2-(benzofuran-3-yl)-1-[3-(2-oxo-1,3-oxazinan-3-yl)propanoylamino]ethyl]boronic acid] were greater than 7.30, “+++ (30 ≤ Selectivity < 50)” and 6.30 to 7.30.
The corresponding values for `CN1CCN(CCC(=O)N[C@@H](Cc2coc3ccccc23)B(O)O)C(=O)C1` [Compound 35, [(1R)-2-(benzofuran-3-yl)-1-[3-(4-methyl-2-oxo-piperazin-1-yl)propanoylamino]ethyl]boronic acid] are greater than 7.30, “++ (10 ≤ Selectivity < 30)” and 6.30 to 7.30.
The corresponding values for `O=C(CN1C(=O)CSC1=O)N[C@@H](Cc1coc2ccccc12)B(O)O` [Compound 33, [(1R)-2-(benzofuran-3-yl)-1-[[2-(2,4-dioxothiazolidin-3-yl)acetyl]-amino]ethyl]boronic acid] are greater than 7.30, “++ (10 ≤ Selectivity < 30)” and 6.30 to 7.30.
As to `Cc1ccc(C[C@H](NC(=O)CCN2CCCCC2=O)B(O)O)cc1C` [Compound 25, [(1R)-2-(3,4-dimethylphenyl)-1-[3-(2-oxo-1-piperidyl)propanoylamino]-ethyl]boronic acid], on LMP7 (incubation for 20 minutes), the pIC50 is greater than 7.30. At Beta5 (incubation for 20 minutes), the “Selectivity LMP7 vs Beta5” value is listed as “+++++ (Selectivity ≥ 70)” and the pIC50 is 5.30 to 6.30.
`O=C(N[C@@H](Cc1coc2ccccc12)B(O)O)C1CCCN1c1ccccc1` (stereo partly drawn) [Compound 37, [(1R)-2-(benzofuran-3-yl)-1-[(1-phenylpyrrolidine-2-carbonyl)amino]ethyl]boronic acid] had a pIC50 on LMP7 (incubation for 20 minutes) greater than 7.30. Further, on Beta5 (incubation for 20 minutes), the “Selectivity LMP7 vs Beta5” value is reported as “+++++ (Selectivity ≥ 70)” and the pIC50 is 5.30 to 6.30.
The corresponding values for `O=C(CCN1CCCCC1=O)N[C@H](Cc1ccccc1)B(O)O` [Compound 3, [(1S)-1-[3-(2-oxo-1-piperidyl)propanoylamino]-2-phenyl-ethyl]boronic acid] are 6.30 to 7.30, “+++ (30 ≤ Selectivity < 50)” and 5.30 to 6.30.
The corresponding values for `O=C(CCN1CCCC1=O)N[C@H](Cc1ccccc1)B(O)O` [Compound 2, [(1S)-1-[3-(2-oxopyrrolidin-1-yl)propaqanoylamino]-2-phenyl-ethyl]-boronic acid] are greater than 7.30, “+++ (30 ≤ Selectivity < 50)” and 5.30 to 6.30.
The corresponding values for `Cc1ccc(C[C@H](NC(=O)CCN2CCN(c3ccccc3)C2=O)B(O)O)cc1` [Compound 15, [(1R)-1-[3-(2-oxo-3-phenyl-imidazolidin-1-yl)propanoylamino]-2-(p-tolyl)ethyl]boronic acid] are greater than 7.30, “++ (10 ≤ Selectivity < 30)” and 6.30 to 7.30.
On LMP7 (incubation for 20 minutes), `CC1(C)CCC(=O)N1CCC(=O)N[C@@H](Cc1coc2ccccc12)B(O)O` [Compound 27, [(1R)-2-(benzofuran-3-yl)-1-[3-(2,2-dimethyl-5-oxo-pyrrolidin-1-yl)propanoylamino]ethyl]boronic acid] showed a pIC50 greater than 7.30. Further, on Beta5 (incubation for 20 minutes), the “Selectivity LMP7 vs Beta5” value is “+++++ (Selectivity ≥ 70)” and the pIC50 was 5.30 to 6.30.
Take `Cc1ccc(C[C@H](NC(=O)CCN2CCCCC2=O)B(O)O)c(C)c1` [Compound 31, [(1R)-2-(2,4-dimethylphenyl)-1-[3-(2-oxo-1-piperidyl)propanoylamino]-ethyl]boronic acid]: the figures for the pIC50 against LMP7 (incubation for 20 minutes) and against Beta5 (incubation for 20 minutes) were greater than 7.30 and 5.30 to 6.30, respectively. In addition, the “Selectivity LMP7 vs Beta5” value on Beta5 (incubation for 20 minutes) is listed as “+++++ (Selectivity ≥ 70)”.
As for `Cc1cccc2c1OC[C@H]2C[C@H](NC(=O)CCN1CCCCC1=O)B(O)O` [Compound 40, [(1R)-2-[(3S)-7-methyl-2,3-dihydrobenzofuran-3-yl]-1-[3-(2-oxo-1-piperidyl)propanoylamino]ethyl]boronic acid], the pIC50 was greater than 7.30 against LMP7 (long incubation (120 min)) and less than 5.30 at Beta5 (long incubation (120 min)). Moreover, the “Selectivity LMP7 vs Beta5” value at Beta5 (long incubation (120 min)) was “+++++ (Selectivity ≥ 70)”.
Take `O=C(CCN1CCCCC1=O)N[C@@H](Cc1coc2ccccc12)B(O)O` [Compound 24, [(1R)-2-(benzofuran-3-yl)-1-[3-(2-oxo-1-piperidyl)propanoylamino]-ethyl]boronic acid]: the pIC50 against LMP7 (incubation for 20 minutes) is greater than 7.30; on Beta5 (incubation for 20 minutes), 6.30 to 7.30. Also, the “Selectivity LMP7 vs Beta5” value at Beta5 (incubation for 20 minutes) is “+++ (30 ≤ Selectivity < 50)”.
At LMP7 (incubation for 20 minutes), `Cc1ccc(C[C@H](NC(=O)CCN2CCCCS2(=O)=O)B(O)O)cc1` [Compound 22, [(1R)-1-[3-(1,1-dioxothiazinan-2-yl)propanoylamino]-2-(p-tolyl)ethyl]-boronic acid] showed a pIC50 greater than 7.30. Also, at Beta5 (incubation for 20 minutes), the “Selectivity LMP7 vs Beta5” value is given as “++ (10 ≤ Selectivity < 30)” and the pIC50 was 6.30 to 7.30.
On to `Cc1ccc(C[C@H](NC(=O)CC[C@@H]2NC(=O)NC2=O)B(O)O)cc1` [Compound 23, [(1R)-1-[3-[(4S)-2,5-dioxoimidazolidin-4-yl]propanoylamino]-2-(p-tolyl)ethyl]boronic acid], for which the pIC50 on LMP7 (incubation for 20 minutes) was greater than 7.30. Besides, at Beta5 (incubation for 20 minutes), the “Selectivity LMP7 vs Beta5” value is given as “++ (10 ≤ Selectivity < 30)” and the pIC50 was 5.30 to 6.30.
